Measurements from article PMC2755569 (The Pediatric Infectious Disease Journal, 2009).

Experiments:
[1] = Steady-state plasma pharmacokinetics of LPV/RTV plus EFV, protocol P1058
[2] = range = 0.5- to 2.0-fold of target value; cited from earlier work
[3] = human, in vivo
[4] = children dosed according to body weight-adjusted dose recommendations; cited from earlier work
[5] = 15 South African children, median dose 352 mg/m^2 equivalent to 14 mg/kg; cited from earlier work
[6] = clinical; details: human, in vivo
[7] = median (range), steady state, LPV/RTV 300 mg/m^2 b.i.d. + EFV 350 mg/m^2 q.d., 15 patients

## CC(C)c1nc(CN(C)C(=O)N[C@H](C(=O)N[C@@H](Cc2ccccc2)C[C@H](O)[C@H](Cc2ccccc2)NC(=O)OCc2cncs2)C(C)C)cs1 [RTV, ritonavir]
[1]; human, plasma, oral, Cmin (C12 h), median (range), LPV/RTV 300 mg/m^2 b.i.d. with EFV, 15 patients
  concentration at 12 h: 300 ng/mL
[1]; [7]
  CL (CL/F): 11.8 (2.0–264.8) L/h
[1]; median (range), steady state, LPV/RTV 300 mg/m^2 b.i.d. + EFV 350 mg/m^2 q.d., 15 patients, plasma
  Tmax: 3.0 (1.0–8.1) hr

## O=C1Nc2ccc(Cl)cc2[C@@](C#CC2CC2)(C(F)(F)F)O1 [EFV, efavirenz]
[2]
  Target GM (range) AUC24: 64 (32–124) mg × h/L
  Target GM (range) C24 hours: 1.8 (0.9 –3.6) mg/L
[3]
  AUC lower compared with pediatric and adult patients: 30%
[3]; 24 h
  Cmin lower compared with pediatric and adult patients: 60%
[4]
  Patients with plasma concentrations below the targeted range: 64%
[5]
  Patients with estimated Cmin <1 mg/L: 40%
[1]; human, plasma, oral, 350 mg/m2, AUC24, GM (90% CI), geometric mean (90% CI), EFV 350 mg/m^2 q.d. with LPV/RTV
  AUC: 44100 ng·h/mL
[1]; human, plasma, oral, EstC24 hours, GM (90% CI), geometric mean (90% CI), EFV 350 mg/m^2 q.d. with LPV/RTV
  concentration at 24 h: 800 ng/mL
[1]; [7]
  CL (CL/F): 8.5 (2.3–22.9) L/h

## Cc1cccc(C)c1OCC(=O)N[C@@H](Cc1ccccc1)[C@@H](O)C[C@H](Cc1ccccc1)NC(=O)[C@H](C(C)C)N1CCCNC1=O [LPV, lopinavir]
[2]
  Target GM (range) AUC12: 80 (40 –160) mg × h/L
[6]; 300 mg/m2, AUC (AUC12), GM (90% CI)
  AUC: 91300 ng·h/mL
[6]; 300 mg/m2, AUCτ (AUC12)
  AUC: 100000 ng·h/mL
